In brackets after ≈: the same amount, converted by molar mass.
Experiments:
[1] = tested on: Sal. typhimurium ATCC 14028; assay: Antimicrobial activity, agar dilution; type: cell-based, Salmonella typhimurium; settings: Salmonella enterica, 20 h, Agar Dextrose dilutions, 37°C, 20 heures, read-out: Activité pharmacologique antimicrobienne (concentrations)
Source text: (§1) L'activité pharmacologique antimicrobienne de ces composés a été étudiée selon les références exposées ci-dessous.
(§2) Activité pharmacologique antimicrobienne : G.L. Daquet et Y.A. Chabbect, techniques en bactériologie, Vol. 3, Flammarion Médecine-Sciences, Paris 1972, et W.B. Hugo et A.D. Rusell, Pharmaceutical Microbiology, Blackwell Scientific Publications, London, 1977.
(§3) Milieu de culture et solvant : Agar d'antibiotiques n° 1 (Oxoid CM 327) Bouillon de triptone-soja (Oxoid CM 129) Solution Physiologique Ringer 1/4 (Oxoid BR 52) Agar Dextrose (BBL 11165)
(§4) Microorganismes : "Bacillus subtilis" ATCC 6633 "Citrobacter freundii" ATCC 112606 "Enterobacter aerogenes" ATCC 15038 "Enterobacter cloacae" ATCC 23355 "Bacillus cereus" ATCC 1178 "Escherichia coli" ATCC 10799 "Escherichia coli" ATCC 23559 "Klebsiella pneumoniae" ATCC 10031 "Proteus vulgaris" ATCC 8427 "Morg. morganii" ATCC 8019 "Pseudomonas aeruginosa" ATCC 9721 "Pseudomonas aeruginosa" ATCC 10145 "Salmonella typhimurium" ATCC 14028 "Salmonella typhimurium" ATCC 6539 "Serratia marcescens" ATCC 13880 "Shigella flexnerii" ATCC 12022 "Staphylococcusepidermis" ATCC 155-1 "Staphylococcus aureus" ATCC 25178 "Streptococcus faecalis" ATCC 10541.
(§5) Chacun des microorganismes est ensemencé par strie dans des tubes d'Agar d'antibiotiques n° 1, et mis en incubation pendant 20 heures à 37°C. Ensuite, on prend une anse de culture, on ensemence dans un bouillon de Triptone-soja et on incube pendant 20 heures à 37°C. On dilue à 1/4 la culture obtenue avec une solution physiologique Ringer, de façon à obtenir une suspension normalisée de […] pour chaque organisme.
(§6) A partir d'une solution de 100 µg/ml, chaque produit est dilué dans l'Agar Dextrose (préalablement fondu et maintenu à 50°C) par dilutions successives de façon à obtenir les concentrations suivantes : 64-32-16-8-4-2-1-0,5-0,25-0,125 µg de dérivé/ml du milieu.
(§7) Postérieurement, chaque concentration de chaque produit est répartie dans des boîtes de Petri de 10 cm de diamètre, à raison de 10 ml de milieu par boîte et autant de boîtes que de microorganismes à tester.
(§8) Une fois le milieu refroidi, les boîtes sont ensemencées avec les inoculations à raison de 0,4 ml d'inoculation par boîte. On les étend avec une anse de Driglasky et on recueille le surnageant. Les boîtes ensemencées sont incubées à 37°C pendant 20 heures.
(§9) Les résultats obtenus sont décrits dans les tableaux suivants. Les concentrations sont données en µg/ml.

[2] = tested on: Proteus vulgaris ATCC 8427; assay: Antimicrobial activity, agar dilution; type: cell-based; settings: Proteus vulgaris, ATCC8427, 20 h, Agar Dextrose dilutions, 37°C, 20 heures, read-out: Activité pharmacologique antimicrobienne (concentrations)
Source text: as §1, §2, §3, §4, §5, §6, §7, §8, §9

[3] = tested on: Morg. morganii ATCC 8019; assay: Antimicrobial activity, agar dilution; type: cell-based; settings: Morganella morganii, ATCC8019, 20 h, Agar Dextrose dilutions, 37°C, 20 heures, read-out: Activité pharmacologique antimicrobienne (concentrations)
Source text: as §1, §2, §3, §4, §5, §6, §7, §8, §9

[4] = tested on: Ps. aeruginosa ATCC 9721; assay: Antimicrobial activity, agar dilution; type: cell-based; settings: Pseudomonas aeruginosa, ATCC9721, 20 h, Agar Dextrose dilutions, 37°C, 20 heures, read-out: Activité pharmacologique antimicrobienne (concentrations)
Source text: as §1, §2, §3, §4, §5, §6, §7, §8, §9

[5] = tested on: Staph. epidermidis ATCC 155-1; assay: Antimicrobial activity, agar dilution; type: cell-based; settings: Staphylococcus epidermidis, ATCC155, 20 h, Agar Dextrose dilutions, 37°C, 20 heures, read-out: Activité pharmacologique antimicrobienne (concentrations)
Source text: as §1, §2, §3, §4, §5, §6, §7, §8, §9

[6] = tested on: Bacillus subtilis ATCC 6633; assay: Antimicrobial activity, agar dilution; type: cell-based; settings: ATCC6633, 20 h, Agar Dextrose dilutions, 37°C, 20 heures, read-out: Activité pharmacologique antimicrobienne (concentrations)
Source text: as §1, §2, §3, §4, §5, §6, §7, §8, §9

[7] = tested on: Escherichia coli ATCC 23559; assay: Antimicrobial activity, agar dilution; type: cell-based; settings: Escherichia coli, ATCC23559, 20 h, Agar Dextrose dilutions, 37°C, 20 heures, read-out: Activité pharmacologique antimicrobienne (concentrations)
Source text: as §1, §2, §3, §4, §5, §6, §7, §8, §9

[8] = tested on: Sal. typhi ATCC 6539; assay: Antimicrobial activity, agar dilution; type: cell-based; settings: Salmonella enterica, 20 h, read-out: Activité pharmacologique antimicrobienne (concentrations)
Source text: as §1, §2, §3, §4, §5, §6, §7, §8, §9

[9] = tested on: Escherichia coli ATCC 10799; assay: Antimicrobial activity, agar dilution; type: cell-based; settings: Escherichia coli, ATCC10799, 20 h, Agar Dextrose dilutions, 37°C, 20 heures, read-out: Activité pharmacologique antimicrobienne (concentrations)
Source text: as §1, §2, §3, §4, §5, §6, §7, §8, §9

[10] = tested on: Ps. aeruginosa ATCC 10145; assay: Antimicrobial activity, agar dilution; type: cell-based; settings: Pseudomonas aeruginosa, ATCC10145, 20 h, Agar Dextrose dilutions, 37°C, 20 heures, read-out: Activité pharmacologique antimicrobienne (concentrations)
Source text: as §1, §2, §3, §4, §5, §6, §7, §8, §9

[11] = tested on: Bacillus cereus ATCC 11778; assay: Antimicrobial activity, agar dilution; type: cell-based; settings: Bacillus cereus, ATCC11778, 20 h, Agar Dextrose dilutions, 37°C, 20 heures, read-out: Activité pharmacologique antimicrobienne (concentrations)
Source text: as §1, §2, §3, §4, §5, §6, §7, §8, §9

[12] = tested on: Shigella flexnerii ATCC 12022; assay: Antimicrobial activity, agar dilution; type: cell-based; settings: ATCC12022, 20 h, Agar Dextrose dilutions, 37°C, 20 heures, read-out: Activité pharmacologique antimicrobienne (concentrations)
Source text: as §1, §2, §3, §4, §5, §6, §7, §8, §9

[13] = tested on: Staph. aureus ATCC 25178; assay: Antimicrobial activity, agar dilution; type: cell-based, Staphylococcus aureus; settings: Staphylococcus aureus, ATCC25178, 20 h, Agar Dextrose dilutions, 37°C, 20 heures, read-out: Activité pharmacologique antimicrobienne (concentrations)
Source text: as §1, §2, §3, §4, §5, §6, §7, §8, §9

[14] = tested on: Serr. marcescens ATCC 13880; assay: Antimicrobial activity, agar dilution; type: cell-based, Serratia marcescens; settings: Serratia marcescens, ATCC13880, 20 h, Agar Dextrose dilutions, 37°C, 20 heures, read-out: Activité pharmacologique antimicrobienne (concentrations)
Source text: as §1, §2, §3, §4, §5, §6, §7, §8, §9

[15] = tested on: Kleb. pneumoniae ATCC 10031; assay: Antimicrobial activity, agar dilution; type: cell-based, Klebsiella pneumoniae; settings: Klebsiella pneumoniae, ATCC10031, 20 h, Agar Dextrose dilutions, 37°C, 20 heures, read-out: Activité pharmacologique antimicrobienne (concentrations)
Source text: as §1, §2, §3, §4, §5, §6, §7, §8, §9

[16] = tested on: Ent. cloacae ATCC 23355; assay: Antimicrobial activity, agar dilution; type: cell-based, Enterobacter cloacae; settings: Enterobacter cloacae, ATCC23355, 20 h, Agar Dextrose dilutions, 37°C, 20 heures, read-out: Activité pharmacologique antimicrobienne (concentrations)
Source text: as §1, §2, §3, §4, §5, §6, §7, §8, §9

[17] = tested on: Ent. aerogenes ATCC 15038; assay: Antimicrobial activity, agar dilution; type: cell-based, Enterobacter aerogenes; settings: Klebsiella aerogenes, ATCC15038, 20 h, Agar Dextrose dilutions, 37°C, 20 heures, read-out: Activité pharmacologique antimicrobienne (concentrations)
Source text: as §1, §2, §3, §4, §5, §6, §7, §8, §9

[18] = tested on: Strep. faecalis ATCC 10541; assay: Antimicrobial activity, agar dilution; type: cell-based, Streptococcus faecalis; settings: Enterococcus faecalis, ATCC10541, 20 h, Agar Dextrose dilutions, 37°C, 20 heures, read-out: Activité pharmacologique antimicrobienne (concentrations)
Source text: as §1, §2, §3, §4, §5, §6, §7, §8, §9

[19] = Solubility in water and at pH 7.4; type: physicochemical
Source text: Un grand nombre des composés de l'invention manifestent une augmentation de la solubilité dans l'eau ainsi que de la solubilité à pH 7,4 lorsqu'on compare avec les composés de référence. L'augmentation de solubilité au pH physiologique peut favoriser l'absorption du produit et la solubilité élevée dans l'eau permet l'administration du composé par voie parentérale.

[20] = tested on: Citr. freundii ATCC 11606; assay: Antimicrobial activity, agar dilution; type: cell-based, Citrobacter freundii; settings: Citrobacter freundii, ATCC11606, 20 h, Agar Dextrose dilutions, 37°C, 20 heures, read-out: Activité pharmacologique antimicrobienne (concentrations)
Source text: as §1, §2, §3, §4, §5, §6, §7, §8, §9

Question: For C[C@@H]1[C@@H](NC(=O)[C@@H](C)N)CN1c1nc2c(cc1F)c(=O)c(C(=O)O)cn2C1CC1 [Exemple 4fa], which MIC [1] is on record?
Answer: Its MIC is 4 µg/mL (≈ 9.92 µM).

Question: What about the MIC [2] of the same compound?
Answer: The MIC was 8 µg/mL (≈ 19.8 µM).

Question: And the MIC [3]?
Answer: Its MIC is 8 µg/mL (≈ 19.8 µM).

Question: What about the MIC [4] of the same compound?
Answer: Its MIC is > 16 µg/mL.

Question: And the MIC [5]?
Answer: The MIC was 0.25 µg/mL (≈ 0.62 µM).

Question: And the MIC [6]?
Answer: The MIC was 0.5 µg/mL (≈ 1.24 µM).

Question: And the MIC [7]?
Answer: Its MIC is 1 µg/mL (≈ 2.48 µM).

Question: And the MIC [8]?
Answer: Its MIC is 4 µg/mL (≈ 9.92 µM).

Question: What about the MIC [9] of the same compound?
Answer: Its MIC is 4 µg/mL (≈ 9.92 µM).

Question: And the MIC [10]?
Answer: The MIC was > 16 µg/mL.

Question: And the MIC [11]?
Answer: The MIC was 1 µg/mL (≈ 2.48 µM).

Question: And the MIC [12]?
Answer: The MIC was 1 µg/mL (≈ 2.48 µM).

Question: And the MIC [13]?
Answer: Its MIC is 1 µg/mL (≈ 2.48 µM).

Question: And the MIC [14]?
Answer: Its MIC is 16 µg/mL (≈ 39.7 µM).

Question: What about the MIC [15] of the same compound?
Answer: Its MIC is 8 µg/mL (≈ 19.8 µM).

Question: And the MIC [16]?
Answer: Its MIC is 4 µg/mL (≈ 9.92 µM).

Question: What about the MIC [17] of the same compound?
Answer: Its MIC is 4 µg/mL (≈ 9.92 µM).

Question: And the MIC [18]?
Answer: The MIC was 1 µg/mL (≈ 2.48 µM).

Question: And the solubility ([19]; pH 7)?
Answer: Its solubility is > 500 µg/mL.

Question: What about the solubility ([19]; water) of the same compound?
Answer: The solubility was > 500 µg/mL.

Question: And the MIC [20]?
Answer: Its MIC is 4 µg/mL (≈ 9.92 µM).
